Data set [1] relates to Mtb H37Rv. Also noted: species or system Mycobacterium tuberculosis. The conditions noted are these: in vivo, po.
For data set [2], the system named is Mtb. The conditions noted are these: in vivo; cited from earlier work.
The target of data set [3] is T1, Pks13-TE (Mycobacterium tuberculosis, UniProt I6X8D2). The experiment in a line: biochemical.
Data set [4] has as its target T1, Pks13-TE. The experiment in a line: biochemical. The class given is binding.
Data set [5] relates to WT H37Rv. The experiment in a line: microbe, parasite or virus in culture. The conditions noted are these: for MIC: Mycobacterium tuberculosis, H37RV. Type of data set: cell-based, Mycobacterium tuberculosis.
For data set [6], the system named is pks13-TetON -ATc (hypomorph). Type of data set: cell-based, Mycobacterium tuberculosis.
The test system of data set [7] is pks13-TetON +ATc (Pks13-hypermorph). The class given is cell-based, Mycobacterium tuberculosis.
The conditions of data set [8]: in vivo, po.
Data set [9] is described as follows: in vivo. Particulars: female, CD-1, mouse.
The nature of data set [10]: in vitro. Particulars: mouse, plasma.
Data set [11] is described as follows: in vitro. The conditions noted are these: human, plasma.
Data set [12] in a line: in vitro. Particulars: mouse, microsomes.
Data set [13] in a line: Mouse pharmacokinetics studies. The conditions noted are these: female, CD-1, mouse, plasma.
The nature of data set [14]: Metabolic stability in mouse liver microsomes (MLMs). (Liver microsomes are vesicles of endoplasmic reticulum, rich in cytochrome P450 enzymes.)
The mark [15] stands for this setting: read-out: MIC (whole cell activity).

Values after ≈ are worked out from the molar mass of the structure shown. Like-named read-outs stand apart in the source and are kept apart here.

T1 sequence (I6X8D2 1451-1733 limits assumed): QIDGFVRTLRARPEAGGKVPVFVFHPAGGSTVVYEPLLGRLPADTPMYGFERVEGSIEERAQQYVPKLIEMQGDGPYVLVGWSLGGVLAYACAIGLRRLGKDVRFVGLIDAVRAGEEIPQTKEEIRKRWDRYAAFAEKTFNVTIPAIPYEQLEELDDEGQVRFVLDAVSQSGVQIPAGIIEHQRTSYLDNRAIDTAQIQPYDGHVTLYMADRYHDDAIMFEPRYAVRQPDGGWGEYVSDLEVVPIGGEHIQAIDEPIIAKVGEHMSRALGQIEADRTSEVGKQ

As for `NNC(=O)c1ccncc1` [INH, Isoniazid, reference compound], the “reduction in CFU (lung)” value in data set [1] (25 mg/kg) is given as about 1.5 log10. Besides, the “reduction of the burden” value in [2] is recorded as 1 log10.
In general, IC50 refers to the concentration that gives 50% inhibition. As for `CC(=O)N1CCN(C(=O)C2CCN(c3nc(C)cc(C(=O)NCc4ccccc4)n3)CC2)CC1` [X13045], the IC50 in [3] is 15000 nM; in [4] (IC50 (uM)), 15.1 µM. Besides, the MIC in data set [5] (read-out: MIC (Mtb inhibition)), in data set [5] (setting [15]) and in data set [5] (read-out: WT H37Rv MIC (uM)) was 390 µM (≈ 181 µg/mL) in each case. In addition, in [6], the “Hypomorph MIC fold shift (WT/-ATc)” value was 1.5 fold.
In the case of `COCC1(CN(C)C(=O)c2ccc(CCn3cc(-c4ccc(-c5cc(OC)ccc5OC)nc4)nn3)cc2)CC1` [X20403], the IC50 in data set [3] amounted to 57 nM; in [4] (IC50 in the TAMRA binding assay), 0.5 µM. Besides, the MIC in data set [5] (read-out: MIC (Mtb inhibition)) and in data set [5] (read-out: WT H37Rv MIC (uM)) was 0.05 µM (≈ 0.0271 µg/mL) in each case. The “Hypermorph MIC fold shift (+ATc/WT)” value in data set [7] came to 2.3 fold. In addition, the “Hypomorph MIC fold shift (WT/-ATc)” value in data set [6] worked out at 0.88 fold.
Broadly, the Vd is a proportionality between amount in the body and measured concentration, not a real space. The term bioavailability denotes the share of a dose that reaches the circulation, judged against a reference dose that is usually intravenous. Read a low bioavailability as little systemic uptake. By clearance is commonly meant a measure of how efficiently the substance is removed, as volume per time. The fraction unbound is the share of the substance not bound to proteins or other matrix. Read a low fraction unbound as extensive binding. Broadly, the microsomal CLint is a measure of how fast metabolising enzymes remove a compound, apart from limits set by blood flow. In general, half-life refers to the time needed for the level to fall by half in the phase considered. By AUC(0-t) is commonly meant exposure summed from dosing to a finite time, without extrapolation to infinity. Regarding `COc1ccc(OC)c(-c2ccc(-c3cn(CCc4ccc(C(=O)N(C)C)cc4)nn3)cn2)c1` [X20404], the IC50 in data set [4] (IC50 (enzyme inhibition)) is 0.4 µM; in [4] (IC50 (uM)), 0.43 µM. The MIC in [5] (read-out: MIC (Mtb inhibition)), in data set [5] (setting [15]) and in data set [5] (read-out: WT H37Rv MIC (uM)) was 0.25 µM (≈ 0.114 µg/mL) each time. Further, the “Hypermorph MIC fold shift (+ATc/WT)” value in data set [7] is given as 2.3 fold. Also, the “Hypomorph MIC fold shift (WT/-ATc)” value in data set [6] was 2.9 fold. Moreover, the “reduction of the lung CFU compared to untreated control” value in data set [1] (100 mg/kg) is “approximately 0.4 log10”; in data set [1] (200 mg/kg) it was 0.8 log10. In addition, the “fold higher maximum concentration in blood compared to three other compounds” value in [8] (female, CD-1, mouse, 25 mg/kg) is given as about 10 fold. In addition, the “plasma concentrations relative to MIC” value in data set [8] (mouse, 200 mg/kg) is “above the MIC”. Besides, the volume of distribution (Vd) in [9] came to 0.3 L/kg. For the same molecule, in [9], the bioavailability came out at 8%. For the same molecule, the clearance in data set [9] was found to be 6.2 mL/min/kg. For the same molecule, the fraction unbound at 4 h, 10000 ng/mL is 0.023 in data set [10] (mouse PPB (%)), 0.02 in data set [10] (plasma protein binding) and 0.044 in data set [11]. Besides, the microsomal CLint at 5 μM in data set [12] was 26.2 µL/min/mg. The molecule also had a half-life in data set [13] (intravenous, 5 mg/kg) of 36 min. In addition, the AUC(0-t) in data set [13] (iv, 5 mg/kg) came out at 13500 ng·h/mL; in data set [13] (po, 25 mg/kg), 3700 ng·h/mL; in [13] (po, 50 mg/kg), 14200 ng·h/mL; in data set [13] (po, 100 mg/kg), 33300 ng·h/mL; in data set [13] (po, 200 mg/kg), 98100 ng·h/mL. The half-life at 5 μM in data set [14] is 26.8 min.
Take `Cc1cc(C(=O)NCc2ccccc2)nc(N2CCC(C(=O)N3CCN(C(=O)c4cc5c(Cl)cccn5n4)CC3)CC2)n1` [X22324]: the concentration for half-maximal inhibition (IC50) in data set [4] (read-out: IC50) turned out to be 0.53 µM. Further, the “WT H37Rv MIC” value in [5] came out at 0.22 µM. Further, the “Hypermorph MIC fold shift (+ATc/WT)” value in data set [7] is given as 3.7 fold. The “Hypomorph MIC fold shift (WT/-ATc)” value in data set [6] is 3.3 fold.
For `Cc1cc(C(=O)NCc2ccccc2)nc(N2CC(C(=O)N3CCN(C(=O)c4ccc5nc(C)ccc5c4)CC3)C2)n1` [X22327], in data set [4] (read-out: IC50), the half-maximal inhibitory concentration (IC50) came out at 0.56 µM. In addition, in data set [5] (read-out: WT H37Rv MIC), the MIC was determined as 1.3 µM (≈ 0.733 µg/mL). The “Hypermorph MIC fold shift (+ATc/WT)” value in [7] came to 3.6 fold. In addition, the “Hypomorph MIC fold shift (WT/-ATc)” value in data set [6] was 3.1 fold.

The values above are taken from article PMC11091879, “Inhibitors of the Thioesterase Activity of Mycobacterium tuberculosis Pks13 Discovered Using DNA-Encoded Chemical Library Screening” (ACS Infectious Diseases, 2024).
